How the values were obtained:
c-Src = biological target: T1, c-Src (Homo sapiens, UniProt P12931); test: c-Src kinase assay; type: biochemical; conditions: 5 μM ATP, poly GluTyr substrate
T1 construct: made in house; host or cells: baculovirus infected insect cells
Experimental: Several of the invention compounds have been evaluated in a standard assay to measure their ability to inhibit cellular Src protein kinase (c-Src). […] The assay was carried out as follows:
c-Src kinase was purified from baculovirus infected insect cell lysates using an antipeptide monoclonal antibody directed against the N-terminal amino acids (amino acids 2-17) of c-Src. The antibody, covalently linked to 0.65 μm latex beads, was added to a suspension of insect cell lysis buffer comprised of 150 mM NaCl, 50 mM Tris pH 7.5, 1 mM DTT, 1% NP-40, 2 mM EGTA, 1 mM sodium vanadate, 1 mM PMSF, 1 μg/mL each of leupeptin, pepstatin, and aprotinin. Insect cell lysate containing c-Src protein was incubated with these beads for 3 to 4 hours at 4° C. with rotation. At the end of the lysate incubation, the beads were rinsed three times in lysis buffer, resuspended in lysis buffer containing 10% glycerol, and frozen. These latex beads were thawed, rinsed three times in assay buffer (40 mM Tris, pH 7.5, 5 mM […]) and suspended in the same buffer. In a Millipore 96-well plate with a 0.65 μm polyvinylidine membrane bottom were added the reaction components: 10 μL c-Src beads, 10 μL of 2.5 mg/mL poly GluTyr substrate, 5 μM ATP containing 0.2 μCi labeled ^32P-ATP, 5 μL DMSO containing inhibitors or as a solvent control, and buffer to make the final volume 125 μL. The reaction was started at room temperature by addition of the ATP and quenched 10 minutes later by the addition of 125 μL of 30% TCA, 0.1 M sodium pyrophosphate for 5 minutes on ice. The plate was then filtered and the wells washed with two […] aliquots of 15% TCA, 0.1 M pyrophosphate. The filters were then punched, counted in a liquid scintillation counter, and the data examined for inhibitory activity in comparison to a known inhibitor such as erbstatin. The method is also described in J. Med. Chem., 1994; 37:598-609. Tables 5 and 6 list c-Src inhibitory concentrations (IC50) for representative invention compounds.

cdk4/D = cdk4/D (Homo sapiens, UniProt P11802); test: Cyclin-Dependent Kinase 4 (cdk4) enzyme assay, 32P incorporation; type: biochemical; conditions: 25 μM ATP, retinoblastoma substrate
Chain of cdk4/D (P11802 whole entry, species assumed): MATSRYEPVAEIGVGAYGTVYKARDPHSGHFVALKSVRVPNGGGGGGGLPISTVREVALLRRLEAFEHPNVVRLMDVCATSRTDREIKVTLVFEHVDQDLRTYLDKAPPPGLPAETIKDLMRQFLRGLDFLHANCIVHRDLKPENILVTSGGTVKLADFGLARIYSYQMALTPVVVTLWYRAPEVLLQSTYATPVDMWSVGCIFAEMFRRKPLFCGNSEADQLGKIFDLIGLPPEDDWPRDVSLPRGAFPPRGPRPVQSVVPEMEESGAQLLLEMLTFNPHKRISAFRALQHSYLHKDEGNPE
Chain of cdk4/D (P24385 whole entry partner, species assumed): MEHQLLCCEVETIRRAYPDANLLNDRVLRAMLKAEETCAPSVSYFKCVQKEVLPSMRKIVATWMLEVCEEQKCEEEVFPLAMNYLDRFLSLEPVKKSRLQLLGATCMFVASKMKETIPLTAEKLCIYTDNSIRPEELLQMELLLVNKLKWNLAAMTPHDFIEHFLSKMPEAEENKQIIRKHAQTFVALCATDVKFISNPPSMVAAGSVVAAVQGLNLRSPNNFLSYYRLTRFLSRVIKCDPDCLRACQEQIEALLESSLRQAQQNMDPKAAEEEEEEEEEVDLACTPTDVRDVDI
Experimental: A typical assay, for instance, measures inhibitory activity against the cyclin D dependent kinase 4 enzyme (cdk4/D). […] The cdk4 assay was carried out as follows.
Cyclin-Dependent Kinase 4 (cdk4) Assay
Enzyme assays for IC50 determinations (Tables 1 and 2) and kinetic evaluation were performed in 96 well filter plates (Millipore MADVN6550). The total volume was 0.1 mL containing a final concentration of 20 mM TRIS (tris[hydroxymethyl]aminomethane), at pH 7.4, 50 mM NaCl, 1 mM dithiothreitol, 10 mM MgCl2, 25 μM ATP containing 0.25 μCi of [^32P]ATP, 20 ng of cdk4, 1 μg of retinoblastoma, and appropriate dilutions of a compound of the present invention. All components except the ATP were added to the wells, and the plate was placed on a plate mixer for 2 minutes. The reaction was started by adding [^32P]ATP and the plate was incubated at 25° C. for 15 minutes. The reaction was terminated by addition of 0.1 mL of 20% trichloroacetic acid (TCA). The plate was kept at 4° C. for at least 1 hour to allow the substrate to precipitate. The wells were then washed five times with 0.2 mL of 10% TCA and ^32p incorporation was determined with a beta plate counter (Wallac Inc., Gaithersburg. MD).

cdc2/cyclinB = cdc2/cyclinB (Homo sapiens, UniProt P06493); test: Cyclin-dependent kinase assay cdc2/cyclinB (cdk1/B); type: biochemical
Chain of cdc2/cyclinB (P06493 whole entry, species assumed): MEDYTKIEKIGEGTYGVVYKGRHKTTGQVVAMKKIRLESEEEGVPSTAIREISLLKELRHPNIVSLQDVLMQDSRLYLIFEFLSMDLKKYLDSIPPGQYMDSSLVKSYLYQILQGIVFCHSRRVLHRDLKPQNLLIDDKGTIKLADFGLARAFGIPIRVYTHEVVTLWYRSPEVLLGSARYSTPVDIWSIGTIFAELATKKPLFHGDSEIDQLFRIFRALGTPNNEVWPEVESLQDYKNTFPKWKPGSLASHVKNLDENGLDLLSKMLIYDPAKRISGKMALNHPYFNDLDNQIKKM
Chain of cdc2/cyclinB (P14635 whole entry partner, species assumed): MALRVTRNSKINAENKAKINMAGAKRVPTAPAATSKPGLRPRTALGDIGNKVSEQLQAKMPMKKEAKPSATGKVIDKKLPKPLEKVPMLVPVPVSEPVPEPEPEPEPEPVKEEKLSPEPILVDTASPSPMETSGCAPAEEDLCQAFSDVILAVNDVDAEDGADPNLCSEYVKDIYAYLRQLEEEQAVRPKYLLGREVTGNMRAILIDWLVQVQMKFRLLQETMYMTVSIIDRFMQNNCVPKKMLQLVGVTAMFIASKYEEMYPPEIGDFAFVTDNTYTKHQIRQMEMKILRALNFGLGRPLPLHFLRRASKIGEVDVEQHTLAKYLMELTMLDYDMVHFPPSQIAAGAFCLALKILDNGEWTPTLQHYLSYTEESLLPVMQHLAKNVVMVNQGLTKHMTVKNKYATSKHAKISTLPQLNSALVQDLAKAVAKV
Experimental: (§1) Cyclin-Dependent Kinase Assays (cdk2/cyclinE, cdk2/cyclinA, cdc2/cyclinB)
(§2) All components except the ATP were added to the wells, and the plate was placed on a plate mixer for 2 minutes. The reaction was begun by addition of [^32P]ATP, and the plate was incubated at 25° C. for 15 minutes. The reaction was terminated by addition of 0.1 mL of 20% TCA. The plate was kept at 4° C. for at least 1 hour to allow the substrate to precipitate. The wells were then washed five times with 0.2 mL of 10% TCA and ^32P incorporation determined with a beta plate counter (Wallac Inc., Gaithersburg, Md.).

[1] = biological target: T2, FGF-1 (flg) receptor tyrosine kinase (Homo sapiens, UniProt P11362); test: FGF receptor tyrosine kinase assay; type: biochemical; conditions: intracellular tyrosine kinase domain, SF9 lysate
T2 construct: amplify a fragment of DNA that codes for the intracellular tyrosine kinase domain; made in house; host or cells: SF9 insect cells (baculovirus)
T2 sequence (P11362 478-767 limits assumed): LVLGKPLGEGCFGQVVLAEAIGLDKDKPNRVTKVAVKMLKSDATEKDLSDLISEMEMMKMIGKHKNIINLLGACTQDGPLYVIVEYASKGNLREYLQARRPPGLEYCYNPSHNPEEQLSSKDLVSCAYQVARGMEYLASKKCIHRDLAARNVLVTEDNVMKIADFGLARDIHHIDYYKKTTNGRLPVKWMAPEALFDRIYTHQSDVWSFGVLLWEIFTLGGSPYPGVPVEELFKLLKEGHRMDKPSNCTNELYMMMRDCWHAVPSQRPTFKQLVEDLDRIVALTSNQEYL
Experimental: The assays used to determine these activities were carried out as follows:
PDGF and FGF Receptor Tyrosine Kinase Assays
PCR primers were designed to amplify a fragment of DNA that codes for the intracellular tyrosine kinase domain. The fragment was inserted into a baculovirus vector, cotransfected with AcMNPV DNA, and the recombinant virus isolated. SF9 insect cells were infected with the virus to overexpress the protein, and the cell lysate was used for the assay. Assays were performed in 96-well plates (100 μL/incubation/well), and conditions were optimized to measure the incorporation of ^32P from γ^32P-ATP into a glutamate-tyrosine co-polymer substrate. Briefly, to each well was added 82.5 μL of incubation buffer containing 25 mM Hepes (pH 7.0), 150 mM NaCl, 0.1% Triton X-100, 0.2 mM PMSF, 0.2 mM Na3VO4, 10 mM MnCl2, and 750 μg/mL of Poly (4:1) glutamate-tyrosine followed by 2.5 μL of inhibitor and 5 μL of enzyme lysate (7.5 μg/μL FGF-TK or 6.0 μg/μL PDGF-TK) to initiate the reaction. Following a 10 minute incubation at 25° C., […] of γ^32P-ATP (0.4 μCi plus 50 μM ATP) was added to each well, and samples were incubated for an additional 10 minutes at 25° C. […] Nonspecific activity was defined as radioactivity retained on the filters following incubation of samples with buffer alone (no enzyme). […]

cdk2/cyclinE = cdk2/cyclinE (Homo sapiens, UniProt P24941); test: Cyclin-dependent kinase assay cdk2/cyclinE; type: biochemical; conditions: read-out: cdk2/E IC50
Experimental: as §1, §2

cdk2/cyclinA = cdk2/cyclinA (Homo sapiens, UniProt P24941); test: Cyclin-dependent kinase assay cdk2/cyclinA; type: biochemical
Experimental: as §1, §2

T1 sequence (P12931 whole entry, species assumed): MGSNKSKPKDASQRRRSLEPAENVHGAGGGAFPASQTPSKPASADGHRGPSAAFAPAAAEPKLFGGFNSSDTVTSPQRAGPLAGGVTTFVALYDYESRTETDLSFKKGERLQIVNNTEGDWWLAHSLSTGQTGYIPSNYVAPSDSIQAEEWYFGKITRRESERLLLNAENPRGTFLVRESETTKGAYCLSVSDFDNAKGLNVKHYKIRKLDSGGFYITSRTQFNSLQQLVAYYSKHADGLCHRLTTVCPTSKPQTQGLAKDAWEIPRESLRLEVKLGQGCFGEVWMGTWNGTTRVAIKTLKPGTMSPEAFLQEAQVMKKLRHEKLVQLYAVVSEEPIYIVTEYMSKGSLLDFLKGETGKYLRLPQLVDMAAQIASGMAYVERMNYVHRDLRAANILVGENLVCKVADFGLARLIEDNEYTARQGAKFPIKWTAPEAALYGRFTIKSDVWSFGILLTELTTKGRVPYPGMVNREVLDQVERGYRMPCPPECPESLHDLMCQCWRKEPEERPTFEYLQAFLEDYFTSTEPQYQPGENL

| SMILES | IC50 (c-Src) [nM] | IC50 (cdk4/D) [nM] | IC50 (cdc2/cyclinB) [nM] | IC50 [1] [nM] | IC50 (cdk2/cyclinE) [nM] | melting point | IC50 (cdk2/cyclinA) [nM] |
| --- | --- | --- | --- | --- | --- | --- | --- |
| CN1CCN(c2ccc(Nc3ncc4cnc(=O)n(C5CC6CCC5C6)c4n3)cc2)CC1 (stereo not drawn) [Example 44, 1-Bicyclo [2.2.1]hept-2-yl-7-[4-(4-methylpiperazin-1-yl)phenylamino]-pyrimido[4,5-d]pyrimidin-2(1H)-one, exo] | 2300 | 18 | 7360 | 470 | 1200 | > 210 °C (dec.) | 1030 |
| CC(C)n1c(=O)ncc2cnc(Nc3ccc(N4CCC(CCCN5CCOCC5)CC4)cc3)nc21 [Example 43, 1-Isopropyl-7-{4-[4-(3-(morpholin-4-yl)propyl)piperidin-1-yl]phenylamino}-pyrimido[4,5-d]pyrimidin-2(1H)-one] | – | 540 | > 40000 | 4930 | 38000 | – | 7490 |

Reference: patent publication US7501425B1, “Bicyclic pyrimidines and bicyclic 3,4-dihydropyprimidines as inhibitors of cellular proliferation” (Warner Lambert Company, priority 1999, dated 2009)
